Measurements from paper PMC4503722, “Novel Phenotypic Outcomes Identified for a Public Collection of Approved Drugs from a Publicly Accessible Panel of Assays” (PLoS ONE, 2015).
Like-named read-outs stand apart in the source and are kept apart here.

What was measured:
[1] = test system: endothelial tube formation in co-cultures of ECFCs and ADSCs treated with VEGF; assay: cells; assay type: cell-based, human
[2] = test system: nuclear β-catenin in C2C12 cells; assay: cells; assay type: cell-based; conditions: assay number 5; concentration response
[3] = test system: alkaline phosphatase (ALP) activity in C2C12 cells; assay type: cell-based; conditions: assay number 6; concentration response
INS-1E cells [4] = assay: cells; assay type: cell-based, rat
INS-1E cells [5] = assay type: cell-based, rat
HeLa cells = assay: cells; assay type: cell-based; conditions: for Hela CellCycMod PI 2N IC50/EC50: assay number 14; for Hela CellCycMod PI 4N IC50/EC50: assay number 16; for Hela CellCycMod PI MI IC50/EC50: assay number 17; for Hela CellCycMod PI Cell Number IC50/EC50: assay number 18
hp70S6K1 (RPS6KB1) = target: T1, hp70S6K1 (RPS6KB1) (Homo sapiens, UniProt P23443); assay: Cerep LANCE kinase assay hp70S6K1 (S1 assay 31); assay type: biochemical; conditions: assay number 31
T1 construct: purchased Cerep (LANCE kinase assay platform, contract assay)

hKDR = target: T2, hKDR (Homo sapiens, UniProt P35968); assay: Cerep LANCE kinase assay hKDR (S1 assay 32); assay type: biochemical; conditions: assay number 32
T2 construct: purchased Cerep (LANCE kinase assay platform, contract assay)

hJAK2 = target: T3, hJAK2 (Homo sapiens, UniProt O60674); assay: Cerep LANCE kinase assay hJAK2 (S1 assay 33); assay type: biochemical; conditions: assay number 33
T3 construct: purchased Cerep (LANCE kinase assay platform, contract assay)

hGSK3b = target: T4, hGSK3b (Homo sapiens, UniProt P49841); assay: Cerep LANCE kinase assay hGSK3b (S1 assay 34); assay type: biochemical; conditions: assay number 34
T4 construct: purchased Cerep (LANCE kinase assay platform, contract assay)

hFLT3 = target: T5, hFLT3 (Homo sapiens, UniProt P36888); assay: Cerep LANCE kinase assay hFLT3 (S1 assay 35); assay type: biochemical; conditions: assay number 35
T5 construct: purchased Cerep (LANCE kinase assay platform, contract assay)

[6] = test system: ECFC/ADSC co-culture cell nuclei number
DLD-1 = assay: cells; assay type: cell-based
SW480 = assay: cells; assay type: cell-based
HCT116 = assay: cells; assay type: cell-based
[7] = test system: HCT116 cells treated with a GSK3β inhibitor; assay: cells; assay type: cell-based
HT-29 = assay: cells; assay type: cell-based
RKO = assay: cells; assay type: cell-based
SNU-C1 = assay: cells; assay type: cell-based
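Wherever 5mMGluc INS1E SecretionMod IC50/EC50 is given: secreted insulin quantified by homogeneous immunoassay.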

T3 sequence (O60674 whole entry): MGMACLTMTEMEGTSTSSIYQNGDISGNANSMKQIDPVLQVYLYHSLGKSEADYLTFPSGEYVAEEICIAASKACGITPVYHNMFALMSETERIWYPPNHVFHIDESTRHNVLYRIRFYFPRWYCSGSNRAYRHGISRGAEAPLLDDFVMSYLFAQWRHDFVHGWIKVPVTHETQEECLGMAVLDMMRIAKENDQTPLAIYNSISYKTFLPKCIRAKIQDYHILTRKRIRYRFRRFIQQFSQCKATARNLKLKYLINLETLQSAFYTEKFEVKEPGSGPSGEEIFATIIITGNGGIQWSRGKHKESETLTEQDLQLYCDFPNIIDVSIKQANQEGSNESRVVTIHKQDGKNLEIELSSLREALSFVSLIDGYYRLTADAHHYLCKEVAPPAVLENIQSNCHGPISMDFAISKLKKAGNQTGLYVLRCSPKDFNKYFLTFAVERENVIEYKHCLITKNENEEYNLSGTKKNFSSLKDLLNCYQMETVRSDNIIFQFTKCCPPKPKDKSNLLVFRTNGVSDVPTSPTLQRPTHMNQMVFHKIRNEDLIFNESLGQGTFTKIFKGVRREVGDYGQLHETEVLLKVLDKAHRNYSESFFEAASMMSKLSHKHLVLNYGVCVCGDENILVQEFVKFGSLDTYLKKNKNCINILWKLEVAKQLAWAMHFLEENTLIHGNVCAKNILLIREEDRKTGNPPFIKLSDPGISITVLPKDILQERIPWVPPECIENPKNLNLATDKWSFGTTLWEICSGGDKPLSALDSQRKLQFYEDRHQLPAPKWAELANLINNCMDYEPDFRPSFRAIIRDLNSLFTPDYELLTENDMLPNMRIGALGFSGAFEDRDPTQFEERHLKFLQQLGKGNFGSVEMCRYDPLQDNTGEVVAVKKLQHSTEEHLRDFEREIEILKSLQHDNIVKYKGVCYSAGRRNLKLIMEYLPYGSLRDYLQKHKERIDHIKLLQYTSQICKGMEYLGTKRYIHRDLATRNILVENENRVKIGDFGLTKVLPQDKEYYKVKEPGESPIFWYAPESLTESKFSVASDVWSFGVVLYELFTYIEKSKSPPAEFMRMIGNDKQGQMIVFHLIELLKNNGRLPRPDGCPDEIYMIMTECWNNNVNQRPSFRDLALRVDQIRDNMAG
T4 sequence (P49841 whole entry): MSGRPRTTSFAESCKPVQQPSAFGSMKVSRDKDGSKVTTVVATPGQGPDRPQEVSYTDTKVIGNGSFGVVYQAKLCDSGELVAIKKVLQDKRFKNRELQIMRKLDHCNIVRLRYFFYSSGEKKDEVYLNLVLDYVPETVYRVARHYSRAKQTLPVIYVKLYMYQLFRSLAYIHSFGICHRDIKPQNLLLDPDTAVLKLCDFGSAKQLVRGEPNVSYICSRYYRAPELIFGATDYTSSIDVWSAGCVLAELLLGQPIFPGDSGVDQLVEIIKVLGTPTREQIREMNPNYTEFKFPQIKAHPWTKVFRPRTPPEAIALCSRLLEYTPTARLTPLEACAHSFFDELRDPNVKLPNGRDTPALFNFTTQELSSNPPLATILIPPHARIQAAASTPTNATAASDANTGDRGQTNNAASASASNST
T5 sequence (P36888 27-993): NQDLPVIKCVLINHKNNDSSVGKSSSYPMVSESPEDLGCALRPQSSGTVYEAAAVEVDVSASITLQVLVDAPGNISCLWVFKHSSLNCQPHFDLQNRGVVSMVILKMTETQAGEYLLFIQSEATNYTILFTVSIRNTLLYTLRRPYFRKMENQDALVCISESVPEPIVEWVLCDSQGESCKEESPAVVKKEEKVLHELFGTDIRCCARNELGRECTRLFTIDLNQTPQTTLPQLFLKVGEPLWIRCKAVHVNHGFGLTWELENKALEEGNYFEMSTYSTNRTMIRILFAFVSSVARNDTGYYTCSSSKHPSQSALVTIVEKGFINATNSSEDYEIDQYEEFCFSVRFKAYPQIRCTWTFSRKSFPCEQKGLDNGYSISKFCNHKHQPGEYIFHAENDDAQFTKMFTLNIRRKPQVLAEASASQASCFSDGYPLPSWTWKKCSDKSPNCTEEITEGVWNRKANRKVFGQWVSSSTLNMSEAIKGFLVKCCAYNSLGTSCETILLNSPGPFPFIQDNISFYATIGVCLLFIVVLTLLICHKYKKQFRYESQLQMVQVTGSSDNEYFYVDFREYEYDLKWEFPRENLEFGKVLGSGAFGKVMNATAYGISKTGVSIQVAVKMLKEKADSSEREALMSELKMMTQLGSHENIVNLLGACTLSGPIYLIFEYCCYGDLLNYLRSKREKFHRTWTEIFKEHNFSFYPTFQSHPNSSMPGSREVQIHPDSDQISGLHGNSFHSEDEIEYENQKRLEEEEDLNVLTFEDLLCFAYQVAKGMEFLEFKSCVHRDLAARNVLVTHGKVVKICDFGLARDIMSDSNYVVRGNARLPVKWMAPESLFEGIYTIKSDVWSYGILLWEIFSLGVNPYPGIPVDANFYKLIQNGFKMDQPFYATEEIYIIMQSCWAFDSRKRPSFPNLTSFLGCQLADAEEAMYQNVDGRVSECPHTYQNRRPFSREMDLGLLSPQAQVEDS
T1 sequence (P23443 whole entry): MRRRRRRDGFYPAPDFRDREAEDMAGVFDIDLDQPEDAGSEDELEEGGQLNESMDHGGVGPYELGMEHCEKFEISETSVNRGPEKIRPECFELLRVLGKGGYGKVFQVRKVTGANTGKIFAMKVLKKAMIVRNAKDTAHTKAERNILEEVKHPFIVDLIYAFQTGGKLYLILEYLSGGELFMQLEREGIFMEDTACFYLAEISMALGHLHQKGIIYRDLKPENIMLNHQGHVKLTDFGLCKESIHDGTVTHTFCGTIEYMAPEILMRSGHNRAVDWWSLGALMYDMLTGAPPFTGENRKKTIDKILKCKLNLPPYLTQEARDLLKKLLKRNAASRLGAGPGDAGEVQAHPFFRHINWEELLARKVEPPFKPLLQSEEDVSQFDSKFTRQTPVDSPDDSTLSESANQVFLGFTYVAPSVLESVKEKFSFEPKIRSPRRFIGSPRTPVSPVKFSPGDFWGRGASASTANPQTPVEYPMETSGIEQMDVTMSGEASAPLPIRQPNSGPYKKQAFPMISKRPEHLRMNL
T2 sequence (P35968 20-1356): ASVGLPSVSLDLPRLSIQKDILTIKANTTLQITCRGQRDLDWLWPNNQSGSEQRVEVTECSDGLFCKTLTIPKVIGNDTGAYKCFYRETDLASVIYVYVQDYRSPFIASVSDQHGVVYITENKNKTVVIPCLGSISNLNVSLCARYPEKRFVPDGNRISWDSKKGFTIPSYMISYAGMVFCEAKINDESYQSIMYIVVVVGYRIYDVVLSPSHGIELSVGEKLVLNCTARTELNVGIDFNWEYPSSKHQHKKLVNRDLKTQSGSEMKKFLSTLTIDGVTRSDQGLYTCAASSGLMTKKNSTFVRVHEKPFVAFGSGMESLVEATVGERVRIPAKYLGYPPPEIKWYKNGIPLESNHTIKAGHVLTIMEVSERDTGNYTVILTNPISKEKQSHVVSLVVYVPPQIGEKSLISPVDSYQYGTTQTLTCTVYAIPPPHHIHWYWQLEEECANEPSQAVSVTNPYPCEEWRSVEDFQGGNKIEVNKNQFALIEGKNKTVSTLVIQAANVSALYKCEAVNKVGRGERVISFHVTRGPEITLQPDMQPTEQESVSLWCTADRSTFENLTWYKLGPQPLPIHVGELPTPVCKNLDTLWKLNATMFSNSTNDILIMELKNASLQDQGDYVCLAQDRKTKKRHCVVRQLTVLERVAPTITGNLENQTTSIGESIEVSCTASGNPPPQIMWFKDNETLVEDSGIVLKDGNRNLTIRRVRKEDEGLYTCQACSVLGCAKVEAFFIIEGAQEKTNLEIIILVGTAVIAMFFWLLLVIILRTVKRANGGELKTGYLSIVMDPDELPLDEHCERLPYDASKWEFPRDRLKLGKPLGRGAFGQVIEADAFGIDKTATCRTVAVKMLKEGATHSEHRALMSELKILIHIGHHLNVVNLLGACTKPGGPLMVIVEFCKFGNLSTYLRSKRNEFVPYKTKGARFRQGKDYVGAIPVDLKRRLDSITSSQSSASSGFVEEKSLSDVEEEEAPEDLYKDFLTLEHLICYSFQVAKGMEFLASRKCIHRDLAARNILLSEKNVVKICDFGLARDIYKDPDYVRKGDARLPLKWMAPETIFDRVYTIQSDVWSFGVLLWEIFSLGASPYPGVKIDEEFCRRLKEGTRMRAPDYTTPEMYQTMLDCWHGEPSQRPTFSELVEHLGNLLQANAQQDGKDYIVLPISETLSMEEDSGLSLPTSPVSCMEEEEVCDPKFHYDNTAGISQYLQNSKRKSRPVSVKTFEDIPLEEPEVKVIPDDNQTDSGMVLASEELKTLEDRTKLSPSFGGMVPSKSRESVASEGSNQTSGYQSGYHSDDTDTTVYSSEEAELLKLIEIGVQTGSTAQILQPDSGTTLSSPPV

`CSc1ccc2c(c1)C(N1CCN(C)CC1)Cc1ccccc1S2` (stereo not shown) [NCGC00024665-10] was tested, and the “VEGF_ADSC\ECFC Angio CD31 TubeArea IC50/EC50” value [1] was over 10 µM, the “WntCondMedia_bCatenin C2C12 IC50/EC50” value [2] was over 20 µM and the “WntCondMedia_Alk Phos C2C12 IC50/EC50” value [3] was over 20 µM. The “5mMGluc_INS1E SecretionMod IC50/EC50” value (INS-1E cells [4]; assay number 8, 5 mM glucose) was 2.944 µM, the “0.1mMGluc_INS1E SecretionMod Act IC50/EC50” value (INS-1E cells [5]; assay number 9, 0.1 mM glucose) was over 33.33 µM and the “Hela CellCycMod PI 2N IC50/EC50” value (HeLa cells) was over 10 µM. The “Hela CellCycMod PI 4N IC50/EC50” value (HeLa cells) was over 10 µM, the “Hela CellCycMod PI MI IC50/EC50” value (HeLa cells) was over 10 µM and the “Hela CellCycMod PI Cell Number IC50/EC50” value (HeLa cells) was over 10 µM. For the same compound, the “hp70S6K1 LANCE IC50/EC50” value (hp70S6K1 (RPS6KB1)) was over 20 µM, the “hKDR LANCE IC50/EC50” value (hKDR) was over 20 µM and the “hJAK2 LANCE IC50/EC50” value (hJAK2) was over 20 µM. The “hGSK3b LANCE IC50/EC50” value (hGSK3b) was over 20 µM, the “hFLT3 LANCE IC50/EC50” value (hFLT3) was over 20 µM and the “VEGF_ADSC\ECFC Angio Hoechst NucArea IC50/EC50” value [6] was over 10 µM.
In the case of `Cc1c(C)n(Cc2ccccc2)c2ccc(C(=O)OCCN(C)C)cc12` [NCGC00160412-04], the “5mMGluc_INS1E SecretionMod IC50/EC50” value (INS-1E cells [4]) was 3.845 µM, the “0.1mMGluc_INS1E SecretionMod Act IC50/EC50” value (INS-1E cells [5]) was 14.9139 µM and the “Basal_Viability ATP DLD-1 IC50/EC50” value (DLD-1) was 11.2721 µM. The “Basal_Viability ATP SW480 IC50/EC50” value (SW480) was 8.7786 µM, the “Basal_Viability ATP HCT116 IC50/EC50” value (HCT116) was 11.7611 µM and the “GSK3b inh pretreated_Viability ATP HCT116 IC50/EC50” value [7] was 5.474 µM. The “Basal_Viability ATP HT-29 IC50/EC50” value (HT-29) was over 6.6667 µM, the “Basal_Viability ATP RKO IC50/EC50” value (RKO) was 12.7694 µM and the “Basal_Viability ATP SNU-C1 IC50/EC50” value (SNU-C1) was 11.9645 µM.
With `Nc1ccc2cc3ccc(N)cc3nc2c1` [NCGC00166245-04] the “WntCondMedia_bCatenin C2C12 IC50/EC50” value [2] was 5.9868 µM, the “WntCondMedia_Alk Phos C2C12 IC50/EC50” value [3] was over 20 µM and the “5mMGluc_INS1E SecretionMod IC50/EC50” value (INS-1E cells [4]; assay number 8, 5 mM glucose) was 20.6221 µM. For the same compound, the “0.1mMGluc_INS1E SecretionMod Act IC50/EC50” value (INS-1E cells [5]; assay number 9, 0.1 mM glucose) was over 33.33 µM, the “Hela CellCycMod PI 2N IC50/EC50” value (HeLa cells) was over 10 µM and the “Hela CellCycMod PI S Phase IC50/EC50” value (HeLa cells; assay number 15, S phase) was 3.4397 µM. The “Hela CellCycMod PI 4N IC50/EC50” value (HeLa cells) was over 10 µM, the “Hela CellCycMod PI MI IC50/EC50” value (HeLa cells) was 2.4689 µM and the “Hela CellCycMod PI Cell Number IC50/EC50” value (HeLa cells) was 1.3426 µM. For the same compound, the “hp70S6K1 LANCE IC50/EC50” value (hp70S6K1 (RPS6KB1)) was over 20 µM, the “hKDR LANCE IC50/EC50” value (hKDR) was over 20 µM and the “hJAK2 LANCE IC50/EC50” value (hJAK2) was over 20 µM. The “hGSK3b LANCE IC50/EC50” value (hGSK3b) was over 20 µM and the “hFLT3 LANCE IC50/EC50” value (hFLT3) was over 20 µM.
For `CC(C)(Cc1c[nH]c2ccccc12)NCC(O)COc1ccccc1C#N` (stereo not shown) [NCGC00167817-02], the “5mMGluc_INS1E SecretionMod IC50/EC50” value (INS-1E cells [4]; assay number 8, 5 mM glucose) was 15.0119 µM and the “0.1mMGluc_INS1E SecretionMod Act IC50/EC50” value (INS-1E cells [5]; assay number 9, 0.1 mM glucose) was over 33.33 µM.
For `CN(C)CCC[C@@]1(c2ccc(F)cc2)OCc2cc(C#N)ccc21.O=C(O)C(=O)O` [NCGC00178555-02], the “5mMGluc_INS1E SecretionMod IC50/EC50” value (INS-1E cells [4]; assay number 8, 5 mM glucose) was 5.447 µM and the “0.1mMGluc_INS1E SecretionMod Act IC50/EC50” value (INS-1E cells [5]; assay number 9, 0.1 mM glucose) was over 33.33 µM.
`CCCCN1CCCCC1C(=O)Nc1c(C)cccc1C` (stereo not shown) [NCGC00178579-04] was tested, and the “5mMGluc_INS1E SecretionMod IC50/EC50” value (INS-1E cells [4]; assay number 8, 5 mM glucose) was 27.1706 µM and the “0.1mMGluc_INS1E SecretionMod Act IC50/EC50” value (INS-1E cells [5]; assay number 9, 0.1 mM glucose) was over 33.33 µM.
`O=C(NN1CCCC1)NS(=O)(=O)c1ccc(Cl)cc1` [NCGC00182989-01] was tested, and the “5mMGluc_INS1E SecretionMod IC50/EC50” value (INS-1E cells [4]) was 14.8718 µM and the “0.1mMGluc_INS1E SecretionMod Act IC50/EC50” value (INS-1E cells [5]) was over 33.33 µM.
